{"source": "patent US9757374B2", "about": "“Aripiprazole compositions and methods for its transdermal delivery” (Aequus Pharmaceuticals Inc., priority 2010, dated 2017)", "origin": "cited, not measured here"}
{"smiles": "O=C1CCc2ccc(OCCCCN3CCN(c4cccc(Cl)c4Cl)CC3)cc2N1", "note": "[ARPZ, Aripiprazole]", "values": [{"measurement": "solubility in water", "value": "practically insoluble"}]}
